From ChEMBL document CHEMBL1201862, “PubChem BioAssay data set” (2004)
Calls of active or inactive are those of the source.

Assays:
cells [1] = assay: cells
Major prion protein = Major prion protein (Homo sapiens, UniProt P04156); type: functional, cell-based
Protein skinhead-1 = molecular target: T1, Protein skinhead-1 (Caenorhabditis elegans, UniProt P34707); type: functional
T1 sequence (P34707 whole entry): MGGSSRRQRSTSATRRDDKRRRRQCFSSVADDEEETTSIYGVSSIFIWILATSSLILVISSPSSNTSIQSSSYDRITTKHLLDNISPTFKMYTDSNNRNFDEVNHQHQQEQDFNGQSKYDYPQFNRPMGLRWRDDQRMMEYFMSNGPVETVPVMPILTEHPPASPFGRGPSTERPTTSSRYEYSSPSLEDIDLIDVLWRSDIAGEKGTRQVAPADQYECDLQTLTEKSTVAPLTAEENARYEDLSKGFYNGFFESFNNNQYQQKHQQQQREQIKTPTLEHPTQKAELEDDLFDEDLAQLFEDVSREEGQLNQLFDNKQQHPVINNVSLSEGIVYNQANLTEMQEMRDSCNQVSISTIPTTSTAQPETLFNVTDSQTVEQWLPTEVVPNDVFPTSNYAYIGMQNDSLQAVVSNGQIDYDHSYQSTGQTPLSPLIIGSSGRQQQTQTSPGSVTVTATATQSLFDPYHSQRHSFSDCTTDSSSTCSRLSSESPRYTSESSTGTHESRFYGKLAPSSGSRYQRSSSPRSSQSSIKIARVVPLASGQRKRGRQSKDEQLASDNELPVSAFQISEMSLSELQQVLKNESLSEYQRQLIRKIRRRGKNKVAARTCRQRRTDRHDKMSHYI

Prothrombin = Prothrombin (Homo sapiens, UniProt P00734); assay: Thrombin 1536 HTS Dose Response Confirmation. [Related pubchem assays: 1046 (Thrombin 1536 HTS; hits were confirmed in this assay)]; type: functional
Genome polyprotein = Genome polyprotein (dengue virus type 2, UniProt P29990); assay: Dengue-2 NS5 methyltransferase inhibitors, primary screen, biochemical, confirmation dose response (AID 588689); type: functional
[2] = molecular target: T2, Long-chain-fatty-acid--AMP ligase FadD28 (Mycobacterium tuberculosis, UniProt P9WQ59); assay: Fluorescence polarization aasay to screen for inhibitors that compete for the binding of FadD28 to a bisubstrate Measured in Biochemical System Using Plate Reader - 2147-01_Inhibitor_Dose_CherryPick_Activity.; type: functional, Mycobacterium tuberculosis H37Rv
T2 sequence (P9WQ59 whole entry): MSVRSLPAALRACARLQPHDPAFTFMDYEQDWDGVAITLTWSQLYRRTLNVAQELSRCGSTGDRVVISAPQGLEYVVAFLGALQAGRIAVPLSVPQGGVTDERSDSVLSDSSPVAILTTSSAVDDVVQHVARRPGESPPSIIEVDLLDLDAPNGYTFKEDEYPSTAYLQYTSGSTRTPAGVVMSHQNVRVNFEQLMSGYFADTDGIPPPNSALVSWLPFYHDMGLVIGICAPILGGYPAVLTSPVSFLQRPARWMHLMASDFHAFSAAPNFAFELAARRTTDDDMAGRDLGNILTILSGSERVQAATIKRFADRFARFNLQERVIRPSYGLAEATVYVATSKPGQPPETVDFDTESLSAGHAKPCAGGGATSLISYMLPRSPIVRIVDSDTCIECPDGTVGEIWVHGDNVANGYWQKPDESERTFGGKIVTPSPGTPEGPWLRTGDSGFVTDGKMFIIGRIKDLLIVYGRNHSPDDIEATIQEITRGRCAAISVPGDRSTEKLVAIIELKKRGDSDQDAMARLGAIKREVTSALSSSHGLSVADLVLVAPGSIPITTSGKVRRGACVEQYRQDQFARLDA

[3] = inhibitors of intracellular T. cruzi replication, confirmation, NIH3T3 host cells, beta-gal luminescence (AID 2044); type: functional, cell-based;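 further: intracellular parasites grown in NIH/3T3 mouse fibroblasts as host cells; luminescent beta-galactosidase reporter signal from transgenic T. cruzi replicating inside host cells; inhibitors lower the luminescence signal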
[4] = cytotoxicity toward NIH3T3 fibroblasts, dose response, counter-screen, cell-based, ATP luminescence, mouse fibroblasts (AID 2010); type: functional;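 further: cells exposed to compound for about 90 hours before reading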
SUMO-activating enzyme = SUMO-activating enzyme (Homo sapiens, UniProt Q9UBT2); assay: SUMOylation inhibitor hit validation, confirmation, SUMOylation inhibitor project, biochemical, AlphaScreen (AID 2018); type: functional
[5] = molecular target: T3, Calpain-2 catalytic subunit (Sus scrofa, UniProt P43367); assay: pig calpain II inhibitor potency, dose response, biochemical, fluorogenic peptide substrate (AID 1420); type: functional
T3 sequence (P43367 whole entry): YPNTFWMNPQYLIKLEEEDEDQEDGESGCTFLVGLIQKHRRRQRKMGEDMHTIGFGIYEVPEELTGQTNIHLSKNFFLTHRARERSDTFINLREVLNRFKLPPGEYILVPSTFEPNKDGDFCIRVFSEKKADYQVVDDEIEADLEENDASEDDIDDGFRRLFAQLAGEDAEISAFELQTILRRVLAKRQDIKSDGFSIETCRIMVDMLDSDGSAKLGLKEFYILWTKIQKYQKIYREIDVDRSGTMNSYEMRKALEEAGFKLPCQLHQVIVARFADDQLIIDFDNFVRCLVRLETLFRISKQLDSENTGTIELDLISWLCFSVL

BJ [6] = assay: cytotoxicity toward BJ-TERT-LT-ST fibroblasts, dose response, cell-based, RAS-independent, luminescence (AID 1935); type: functional; settings: Homo sapiens;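 further: BJ fibroblasts immortalized with TERT plus LT and ST oncogenes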
[7] = HepG2 cell cytotoxicity, dose response, cytotoxicity control for non-replicating M. tuberculosis project (AID 489018); type: functional; settings: Mycobacterium tuberculosis
INS1 = assay: beta cell apoptosis inhibitors, cytokine rescue, dose response, luminescence, retest (AID 449756); type: functional, cell-based; settings: Rattus norvegicus;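 further: cell death triggered by IL-1 beta plus TNF-alpha plus IFN-gamma mixture; protective hits raise ATP signal compared with cytokine alone wells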
[8] = cytotoxicity toward DRD oncogenic fibroblasts, dose response, cell-based, non-viral oncogenic, luminescence (AID 1934); type: functional; settings: Homo sapiens
cells [9] = type: functional
[10] = THP-1 cell cytotoxicity, dose response, cytotoxicity control for non-replicating M. tuberculosis project (AID 489025); type: functional
BJ [11] = assay: cytotoxicity toward BJ-TERT fibroblasts, dose response, cell-based, RAS-independent, luminescence (AID 1933); type: functional; settings: Homo sapiens
BJ [12] = assay: cells; type: functional, cell-based; settings: Homo sapiens
[13] = Vero E6 cell cytotoxicity, dose response, cytotoxicity control for non-replicating M. tuberculosis project, secondary assay (AID 492998); type: functional, VeroE6; settings: Vero C1008
cells [14] = type: functional, cell-based
cells [15] = type: functional, cell-based; remark: listed apart in the source

For `Cc1nn(C)cc1CN(C)C(=O)c1cc(-c2ccccc2)nc2ccc(Br)cc12`, the IC50 (cells [1]) was 75.1 µM (inactive) and the IC50 (Major prion protein) was 6.12 µM (active).
In the case of `O=C(NC(=S)NCCO)c1sc2ccccc2c1Cl`, the IC50 (cells [1]) is reported as > 138 µM (inactive) and the IC50 (Major prion protein) is reported as 3.4 µM (active).
For `Cn1c(-c2ccc(Br)o2)nc2cc(Br)ccc21`, the IC50 (Protein skinhead-1) was > 100 µM (inactive).
For `CCOC(=O)N1CCN(C(=O)CSCC(=O)Nc2nc(-c3ccc(Cl)s3)cs2)CC1`, the IC50 (Prothrombin) was 1.95 µM (active).
In the case of `COc1cc(C(C2C(=O)CC(C)(C)CC2=O)C2C(=O)CC(C)(C)CC2=O)ccc1O`, the IC50 (Genome polyprotein) is reported as 62.3 µM (active).
For `Cc1ccc(-n2nc3c(=S)[nH]nc(C)c3c2C)cc1`, the IC50 (Major prion protein) was 0.143 µM (active).
For `Cc1ccc(-n2nc3c(S)nnc(C)c3c2C)cc1`, the IC50 (cells [1]) was > 138 µM (inactive).
For `COC(=O)c1cc(NC(=O)CN(c2ccc3c(c2)OCO3)S(C)(=O)=O)ccc1Cl`, the IC50 (Protein skinhead-1) was > 100 µM (inactive).
With `COc1ccccc1-n1c(C)c(C(=O)O)c2cc(OC)c3ccccc3c21` the AC50 [2] was 60.9 µM (active).
With `COC(=O)c1n[nH]c(NC(=O)C(C)(C)C)n1` the IC50 (Prothrombin) was 1.43 µM (active).
For `O=C(COC(=O)c1cccc(S(=O)(=O)N2CCCCCC2)c1)Nc1ccccc1`, the AC50 [2] was > 100 µM (inactive).
In the case of `COC(=O)c1c(NC(=O)CN2CCN(Cc3ccc4c(c3)OCO4)CC2)sc(C)c1C`, the IC50 (Protein skinhead-1) is reported as > 100 µM (inactive), the EC50 [3] is reported as 1.88 µM (active) and the EC50 [4] is reported as > 60 µM (not active).
With `Clc1ccc(Cn2nnc(-c3ccccc3)n2)cc1` the IC50 (Protein skinhead-1) was 12.6 µM (active).
With `O=c1[nH]c(=O)n(Cc2ccccc2)c2c1C(C(F)(F)F)(C(F)(F)F)N=C(c1ccco1)N2` the IC50 (Prothrombin) was 31.5 µM (active).
For `O=C1/C(=C/c2coc3ccc(O)cc3c2=O)SC(=S)N1c1ccccc1`, the IC50 (SUMO-activating enzyme) was 39.4 µM (active).
For `Cc1cc(NC(=O)CSc2nc3cc(C(=O)NCCCOC(C)C)ccc3c(=O)n2Cc2ccco2)no1`, the IC50 (SUMO-activating enzyme) was 38.3 µM (active) and the IC50 [5] was 16.1 µM (not active).
With `Cc1cc(NC(=O)COc2ccc3ccccc3c2Br)no1` the IC50 (cells [1]) was 133 µM (inactive) and the IC50 (Major prion protein) was 1.39 µM (active).
For `Cc1nn(-c2ncc(C(F)(F)F)cc2Cl)c(=O)n1-c1ccccc1`, the IC50 (Protein skinhead-1) was > 100 µM (inactive).
In the case of `N#C/C(=C\c1ccccc1)C(=O)NNS(=O)(=O)c1cccc([N+](=O)[O-])c1`, the IC50 (Genome polyprotein) is reported as 51.8 µM (active).
For `C=CCOc1ccc(C(c2c(O)nc(SC)nc2O)c2c(O)nc(SC)nc2O)cc1`, the IC50 (Genome polyprotein) was 33.3 µM (active).
In the case of `O=[N+]([O-])c1cccnc1N/N=C/c1ccccc1O`, the EC50 (BJ [6]) is reported as 21.6 µM (active), the CC50 [7] is reported as 14.4 µM (active) and the AC50 (INS1) is reported as 0.691 µM (active). The EC50 [8] was 8.92 µM (active), the IC50 (cells [9]) was 3.92 µM (active) and the CC50 [10] was 0.766 µM (active). For the same molecule, the EC50 (BJ [11]) was 9.77 µM (active), the EC50 (BJ [12]) was 10.9 µM (active) and the CC50 [13] was 3.08 µM (active). For the same molecule, the EC50 (cells [14]) was 6.41 µM (active) and the EC50 (cells [15]) was > 350 µM (not active).
With `Cc1ccc(NC(C)C(=O)N/N=C/c2ccc([N+](=O)[O-])s2)cc1` (stereo not drawn) the IC50 (cells [9]) was 7.04 µM (active), the CC50 [10] was 25.9 µM (active) and the EC50 [3] was 0.494 µM (active). For the same molecule, the CC50 [13] was 15.8 µM (active) and the EC50 [4] was > 60 µM (not active).
With `Cc1ccc(OCC(=O)N/N=C\c2c(C)n(C)c3ccccc23)c([N+](=O)[O-])c1` the AC50 [2] was 68 µM (active).
